Literature values as cited in patent US20160106677A1, “PHARMACEUTICAL COMPOSITION AND USES THEREOF” (Boehringer Ingelheim International GmbH, priority 2014, published 2016).

Test system: HbA1c
Conditions: metformin on its own, in the diabetic

## CN(C)C(=N)N=C(N)N [metformin]
  average improvement in the HbA1c value: 1.0-1.5%
